Earlier results, collected in patent publication US5434174A, “Isoxazole derivatives for the treatment of irritable bowel syndrome” (priority 1993, dated 1995).

Conditions: IBS therapy; cited from earlier work

## CCN(CC)CCOC(=O)C1(C2CCCCC2)CCCCC1 [Bentyl]
  side effects: serious side effects
